Where two headings read alike, the source gives them in different places.
Assays:
[1] = system: MiaPaca-2 (expressing KRAS G12C mutant); assay: Proliferation Assay (Cell Viability Assay); type: cell-based; conditions: Homo sapiens, MIA PaCa-2
How it was run: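 After 2–4 days' exposure at 37 °C, 5% CO2 to a single 10 μM final concentration or a dilution series (IC50), percent proliferation inhibition was derived from CellTiter 96 Aqueous One viability readings. The medium contained 0.3% DMSO and 10% FBS. KRAS G12C MiaPaca-2 cells were plated at 2000–5000/well the day before.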

[2] = system: KRas G12D mutant; assay: Ras GTP Binding Domain Inhibition Assay (Ras Superfamily Assay); conditions: for KRas G12D mutant + SOS: % inh.: with SOS; for KRas G12D mutant: % inh.: without SOS
How it was run: (§1)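 Binding of 100 nM fluorescent GTP (Cy3 or Cy5, 45 min, room temperature) was read after washes from plate-captured His-tagged protein. Beforehand, compounds at 20 μM or in dilution series for IC50 sat 3 h on the protein in Tris buffer pH 7.4 or 7.0 with 1% DMSO, Sos GEF optionally added for the last hour.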

[3] = system: KRas wild type; assay: as above; conditions: for KRas wild type + SOS: % inh.: with SOS; for KRas wild type: % inh.: without SOS
How it was run: as §1

[4] = target: T1, Rac-1 (Homo sapiens, UniProt P63000); assay: as above; conditions: read-out: Rac-1: % inh.
T1 construct: made in house
How it was run: as §1

[5] = read-out: Proliferation in MiaPaca-2: IC50

Row | SMILES | IC50 [1, 5] [nM] | KRas G12D mutant + SOS: % inh. ([2]; at 20 μM) | KRas G12D mutant: % inh. ([2]; at 20 μM) | KRas wild type + SOS: % inh. ([3]; at 20 μM) | KRas wild type: % inh. ([3]; at 20 μM) | inhibition at 20 µM [4] [%] | KRas G12D mutant + SOS: % inh. ([2]; 20 μM compound) | KRas G12D mutant: % inh. ([2]; 20 μM compound) | KRas wild type + SOS: % inh. ([3]; 20 μM compound) | KRas wild type: % inh. ([3]; 20 μM compound) | IC50 ([1]; Proliferation assay, MiaPaca-2, read-out: MiaPaca-2 IC50 (nM) Pancreatic) [nM]
1 | CO[C@H]1C[C@H](Nc2nc(-c3nccn3C)nn3cc(-c4ccc(OCCN)cc4)c(-c4ccccc4)c23)C1.Cl [Compound 208, 6-(4-(2-Aminoethoxy)phenyl)-N-((1r,3r)-3-methoxycyclobutyl)-2-(1-methyl-1H-imidazol-2-yl)-5-phenylpyrrolo[2,1-f][1,2,4]triazin-4-amine hydrochloride salt] | > 1000 | C (C = 50-75% inhibition) | B (B = 26-49% inhibition) | C (C = 50-75% inhibition) | B (B = 26-49% inhibition) | 26 to 49 | – | – | – | – | –
2 | COC[C@@H]1CC[C@@H]1CNc1nc(-c2ccccn2)nn2cc(-c3ccn(C(C)C)n3)c(C)c12 (racemic) [Compound 11, rac 6-(1-Isopropyl-1H-pyrazol-3-yl)-N-(((1S,2R)-2-(methoxymethyl)cyclobutyl)methyl)-5-methyl-2-(pyridin-2-yl)pyrrolo[2,1-f][1,2,4]triazin-4-amine] | > 1000 | – | – | – | – | 0 | 0 (0 = 0% inhibition) | A (A = 1-25% inhibition) | 0 (0 = 0% inhibition) | 0 (0 = 0% inhibition) | –
3 | CO[C@H]1C[C@H](Nc2nc(-c3nccn3C)nn3cc(-c4cccc(CN)c4)c(-c4ccccc4)c23)C1 [Compound 204, 6-(3-(aminomethyl)phenyl)-N-((1r,3r)-3-methoxycyclobutyl)-2-(1-methyl-1H-imidazol-2-yl)-5-phenylpyrrolo[2,1-f][1,2,4]triazin-4-amine] | > 1000 | A (A = 1-25% inhibition) | A (A = 1-25% inhibition) | A (A = 1-25% inhibition) | A (A = 1-25% inhibition) | 1 to 25 | – | – | – | – | –
4 | COc1cccc(Nc2nc(-c3ccccn3)nn3cc(-c4ccn(C(C)C)n4)c(C)c23)n1 [Compound 14, 6-(1-Isopropyl-1H-pyrazol-3-yl)-N-(6-methoxypyridin-2-yl)-5-methyl-2-(pyridin-2-yl)pyrrolo[2,1-f][1,2,4]triazin-4-amine] | > 1000 | – | – | – | – | 0 | 0 (0 = 0% inhibition) | A (A = 1-25% inhibition) | A (A = 1-25% inhibition) | 0 (0 = 0% inhibition) | –
5 | Cc1c(-c2ccn(C)n2)cn2nc(-c3nccn3C)nc(Nc3cc4c(cn3)CCO4)c12 [Compound 221, N-(5-Methyl-2-(1-methyl-1H-imidazol-2-yl)-6-(1-methyl-1H-pyrazol-3-yl)pyrrolo[2,1-f][1,2,4]triazin-4-yl)-2,3-dihydrofuro[3,2-c]pyridin-6-amine] | < 150 | D (D = 76-100% inhibition) | D (D = 76-100% inhibition) | D (D = 76-100% inhibition) | D (D = 76-100% inhibition) | 76 to 100 | – | – | – | – | 1 to 10
6 | Cc1cnc2c(c1)CCN2c1nc(-c2nccn2C)nn2cc(-c3ccn(C)n3)c(C)c12 [Compound 239, 5-Methyl-2-(1-methyl-1H-imidazol-2-yl)-6-(1-methyl-1H-pyrazol-3-yl)-4-(5-methyl-2,3-dihydro-1H-pyrrolo[2,3-b]pyridin-1-yl)pyrrolo[2,1-f][1,2,4]triazine] | < 150 | D (D = 76-100% inhibition) | D (D = 76-100% inhibition) | D (D = 76-100% inhibition) | D (D = 76-100% inhibition) | 76 to 100 | – | – | – | – | –
7 | CO[C@H]1C[C@H](Nc2nc(-c3nccn3C)nn3cc(-c4ccncc4)c(-c4ccccc4)c23)C1 [Compound 199, N-((1r,3r)-3-Methoxycyclobutyl)-2-(1-methyl-1H-imidazol-2-yl)-5-phenyl-6-(pyridin-4-yl)pyrrolo[2,1-f][1,2,4]triazin-4-amine] | > 1000 | B (B = 26-49% inhibition) | B (B = 26-49% inhibition) | B (B = 26-49% inhibition) | A (A = 1-25% inhibition) | 26 to 49 | – | – | – | – | –
8 | COc1ccnc(Nc2nc(-c3nccn3C)nn3cc(-c4ccn(C)n4)c(C(=O)N4CCOCC4)c23)c1 [Compound 179, (4-((4-Methoxypyridin-2-yl)amino)-2-(1-methyl-1H-imidazol-2-yl)-6-(1-methyl-1H-pyrazol-3-yl)pyrrolo[2,1-f][1,2,4]triazin-5-yl)(morpho-lino)methanone] | > 1000 | – | – | – | – | 76 to 100 | D (D = 76-100% inhibition) | D (D = 76-100% inhibition) | D (D = 76-100% inhibition) | D (D = 76-100% inhibition) | –
9 | COc1ccnc(Nc2nc(-c3nccn3C)nn3cc(-c4c(F)cccc4OC)c(-c4ccccc4)c23)c1 [Compound 217, 6-(2-Fluoro-6-methoxyphenyl)-N-(4-methoxypyridin-2-yl)-2-(1-methyl-1H-imidazol-2-yl)-5-phenylpyrrolo[2,1-f][1,2,4]triazin-4-amine] | < 150 | B (B = 26-49% inhibition) | C (C = 50-75% inhibition) | B (B = 26-49% inhibition) | C (C = 50-75% inhibition) | 50 to 75 | – | – | – | – | –
10 | COCCCNC(=O)c1c(-c2ccn(C)n2)cn2nc(-c3nccn3C)nc(N[C@H]3CC[C@H](OC)C3)c12 (racemic) [Compound 184, rac 4-(((1S,3S)-3-methoxycyclo-pentyl)amino)-N-(3-methoxypropyl)-2-(1-methyl-1H-imidazol-2-yl)-6-(1-methyl-1H-pyrazol-3-yl)pyrrolo[2,1-f][1,2,4]triazine-5-carboxamide] | > 1000 | – | – | – | – | 1 to 25 | 0 (0 = 0% inhibition) | B (B = 26-49% inhibition) | A (A = 1-25% inhibition) | A (A = 1-25% inhibition) | –
11 | Cc1c(-c2ccn(C)n2)cn2nc(-c3nccn3C)nc(Nc3ccc(-n4ccnc4)cn3)c12 [Compound 242, N-(5-(1H-Imidazol-1-yl)pyridin-2-yl)-5-methyl-2-(1-methyl-1H-imidazol-2-yl)-6-(1-methyl-1H-pyrazol-3-yl)pyrrolo[2,1-f][1,2,4]triazin-4-amine] | > 1000 | A (A = 1-25% inhibition) | B (B = 26-49% inhibition) | 0 (0 = 0% inhibition) | A (A = 1-25% inhibition) | 1 to 25 | – | – | – | – | –
12 | CO[C@H]1CC[C@H](Nc2nc(-c3nccn3C)nn3cc(-c4ccncc4)c(-c4ccccc4)c23)C1 (racemic) [Compound 201, rac N-((1S,3S)-3-Methoxycyclopentyl)-2-(1-methyl-1H-imidazol-2-yl)-5-phenyl-6-(pyridin-4-yl)pyrrolo[2,1-f][1,2,4]triazin-4-amine] | > 1000 | B (B = 26-49% inhibition) | B (B = 26-49% inhibition) | B (B = 26-49% inhibition) | A (A = 1-25% inhibition) | 26 to 49 | – | – | – | – | –
13 | Cc1c(-c2ccn(C)n2)cn2nc(-c3nccn3C)nc(Nc3ccc(OC(F)(F)F)cn3)c12 [Compound 232, 5-Methyl-2-(1-methyl-1H-imidazol-2-yl)-6-(1-methyl-1H-pyrazol-3-yl)-N-(5-(trifluoro-methoxy)pyridin-2-yl)pyrrolo[2,1-f][1,2,4]triazin-4-amine] | < 150 | D (D = 76-100% inhibition) | D (D = 76-100% inhibition) | D (D = 76-100% inhibition) | D (D = 76-100% inhibition) | 76 to 100 | – | – | – | – | –

Reference: US12459951B2, “Compounds that interact with RAS superfamily proteins for treatment of cancers, inflammatory diseases, rasopathies, and fibrotic disease” (SHY Therapeutics, LLC, priority 2022, dated 2025)
